Legend:
Format in all cases: functional
Malme-3M = assay: Anticancer activity against human MALME-3M cells assessed cell growth at 10 uM after 48 hrs by sulforhodamine B assay relative to control
UACC-62 = assay: Anticancer activity against human UACC62 cells after 48 hrs by sulforhodamine B assay; conditions: Homo sapiens, UACC-62, 48 h
U-251 [1] = assay: Anticancer activity against human U251 cells after 48 hrs by sulforhodamine B assay; conditions: Homo sapiens, U-251, 48 h
NCI-H23 = assay: Anticancer activity against human NCI-H23 cells after 48 hrs by sulforhodamine B assay; conditions: Homo sapiens, NCI-H23, 48 h
SF-295 = assay: Anticancer activity against human SF295 cells after 48 hrs by sulforhodamine B assay; conditions: Homo sapiens, SF-295, 48 h
SW-620 = assay: Anticancer activity against human SW620 cells after 48 hrs by sulforhodamine B assay; conditions: Homo sapiens, SW-620, 48 h
MCF7 [2] = assay: Anticancer activity against human MCF7 cells after 48 hrs by sulforhodamine B assay
DU-145 = assay: Anticancer activity against human DU145 cells after 48 hrs by sulforhodamine B assay; conditions: Homo sapiens, DU-145, 48 h
BT-549 [3] = assay: Anticancer activity against human BT549 cells assessed cell growth at 10 uM after 48 hrs by sulforhodamine B assay relative to control
SK-MEL-5 = assay: Anticancer activity against human SK-MEL-5 cells assessed cell growth at 10 uM after 48 hrs by sulforhodamine B assay relative to control
MDA-MB-435 = assay: Anticancer activity against human MDA-MB-435 cells assessed cell growth at 10 uM after 48 hrs by sulforhodamine B assay relative to control
SNB-19 = assay: Anticancer activity against human SNB19 cells assessed cell growth at 10 uM after 48 hrs by sulforhodamine B assay relative to control
BT-549 [4] = assay: Anticancer activity against human BT549 cells after 48 hrs by sulforhodamine B assay
NCI/ADR-RES = assay: Anticancer activity against human NCI/ADR-RES cells after 48 hrs by sulforhodamine B assay; conditions: Homo sapiens, NCI/ADR-RES, 48 h
CAKI-1 = assay: Anticancer activity against human Caki1 cells after 48 hrs by sulforhodamine B assay; conditions: Homo sapiens, CAKI-1, 48 h
NCI-H322M = assay: Anticancer activity against human NCI-H322M cells after 48 hrs by sulforhodamine B assay
OVCAR-3 = assay: Anticancer activity against human OVCAR-3 cells after 48 hrs by sulforhodamine B assay; conditions: Homo sapiens, OVCAR-3, 48 h
HOP-92 = assay: Anticancer activity against human HOP92 cells after 48 hrs by sulforhodamine B assay; conditions: Homo sapiens, HOP-92, 48 h
HT-29 [5] = assay: Anticancer activity against human HT-29 cells assessed cell growth at 10 uM after 48 hrs by sulforhodamine B assay relative to control
U-251 [6] = assay: Anticancer activity against human U251 cells assessed cell growth at 10 uM after 48 hrs by sulforhodamine B assay relative to control
UACC-257 = assay: Anticancer activity against human UACC257 cells assessed cell growth at 10 uM after 48 hrs by sulforhodamine B assay relative to control
SK-MEL-28 = assay: Anticancer activity against human SK-MEL-28 cells assessed cell growth at 10 uM after 48 hrs by sulforhodamine B assay relative to control
UO-31 = assay: Anticancer activity against human UO31 cells after 48 hrs by sulforhodamine B assay; conditions: Homo sapiens, UO-31, 48 h
NCI-H226 = assay: Anticancer activity against human NCI-H226 cells assessed cell growth at 10 uM after 48 hrs by sulforhodamine B assay relative to control
LOX IMVI = assay: Anticancer activity against human LOXIMVI cells after 48 hrs by sulforhodamine B assay
CCRF-CEM = assay: Anticancer activity against human CCRF-CEM cells after 48 hrs by sulforhodamine B assay; conditions: Homo sapiens, CCRF-CEM, 48 h
786-0 = assay: Anticancer activity against human 786-0 cells after 48 hrs by sulforhodamine B assay; conditions: Homo sapiens, 786-0, 48 h
MDA-MB-231 = assay: Anticancer activity against human MDA-MB-231 cells after 48 hrs by sulforhodamine B assay
SNB-75 = assay: Anticancer activity against human SNB75 cells after 48 hrs by sulforhodamine B assay
OVCAR-8 = assay: Anticancer activity against human OVCAR8 cells after 48 hrs by sulforhodamine B assay; conditions: Homo sapiens, OVCAR-8, 48 h
HCT-15 = assay: Anticancer activity against human HCT15 cells assessed cell growth at 10 uM after 48 hrs by sulforhodamine B assay relative to control
SN12C = assay: Anticancer activity against human SN12C cells after 48 hrs by sulforhodamine B assay; conditions: Homo sapiens, SN12C, 48 h
MCF7 [7] = assay: Anticancer activity against human MCF7 cells assessed cell growth at 10 uM after 48 hrs by sulforhodamine B assay relative to control
NCI-H460 = assay: Anticancer activity against human NCI-H460 cells after 48 hrs by sulforhodamine B assay; conditions: Homo sapiens, NCI-H460, 48 h
SK-MEL-2 = assay: Anticancer activity against human SK-MEL-2 cells assessed cell growth at 10 uM after 48 hrs by sulforhodamine B assay relative to control
ACHN = assay: Anticancer activity against human ACHN cells after 48 hrs by sulforhodamine B assay
EKVX = assay: Anticancer activity against human EKVX cells after 48 hrs by sulforhodamine B assay; conditions: Homo sapiens, EKVX, 48 h
MDA-MB-468 = assay: Anticancer activity against human MDA-MB-468 cells assessed cell growth at 10 uM after 48 hrs by sulforhodamine B assay relative to control
HT-29 [8] = assay: Anticancer activity against human HT-29 cells after 48 hrs by sulforhodamine B assay
HL-60(TB) = assay: Anticancer activity against human HL-60(TB) cells after 48 hrs by sulforhodamine B assay
KM12 = assay: Anticancer activity against human KM12 cells after 48 hrs by sulforhodamine B assay; conditions: Homo sapiens, KM12, 48 h
[9] = read-out: LC50 (the source's name)

Structure (SMILES): CCCCCCCCCCCCCCCCCC[n+]1ccn(C)c1.[Cl-]
- Activity (Malme-3M): -62.43%
- GI50 (UACC-62): 848 nM
- LC50 (UACC-62): 5070 nM
- GI50 (U-251 [1]): 372 nM
- CC50 (U-251 [1]; [9]): 3880 nM
- GI50 (NCI-H23): 392 nM
- CC50 (NCI-H23; [9]): 7720 nM
- GI50 (SF-295): 332 nM
- CC50 (SF-295; [9]): 5590 nM
- GI50 (SW-620): 446 nM
- LC50 (SW-620): 4720 nM
- GI50 (MCF7 [2]): 356 nM
- LC50 (50% cell kill) (MCF7 [2]; Homo sapiens, MCF7, 48 h): 3780 nM
- GI50 (DU-145): 635 nM
- CC50 (DU-145; [9]): 4400 nM
- Activity (BT-549 [3]): -55.64%
- Activity (SK-MEL-5): -81.11%
- Activity (MDA-MB-435): -56.4%
- Activity (SNB-19): -47.53%
- GI50 (BT-549 [4]): 557 nM
- CC50 (BT-549 [4]; Homo sapiens, BT-549, 48 h, read-out: LC50 (the source's name)): 5330 nM
- GI50 (NCI/ADR-RES): 1660 nM
- LC50 (NCI/ADR-RES): > 100000 nM
- GI50 (CAKI-1): 429 nM
- LC50 (CAKI-1): 7450 nM
- LC50 (NCI-H322M): 5950 nM
- GI50 (NCI-H322M; Homo sapiens, NCI-H322M, 48 h): 1300 nM
- GI50 (OVCAR-3): 375 nM
- LC50 (50% lethal concentration) (OVCAR-3): 4010 nM
- GI50 (HOP-92): 1140 nM
- CC50 (HOP-92; [9]): 6850 nM
- Activity (HT-29 [5]): -42.14%
- Activity (U-251 [6]): -0.67%
- Activity (UACC-257): -38%
- Activity (SK-MEL-28): -49.38%
- GI50 (UO-31): 608 nM
- LC50 (UO-31): 5940 nM
- Activity (NCI-H226): -54.04%
- GI50 (LOX IMVI): 189 nM
- CC50 (LOX IMVI; [9]): 1480 nM
- GI50 (CCRF-CEM): 127 nM
- LC50 (CCRF-CEM): 720 nM
- GI50 (786-0): 669 nM
- LC50 (50% lethal concentration) (786-0): 6020 nM
- GI50 (MDA-MB-231): 449 nM
- CC50 (MDA-MB-231; Homo sapiens, MDA-MB-231, 48 h, read-out: LC50 (the source's name)): 4860 nM
- GI50 (SNB-75): 473 nM
- CC50 (SNB-75; Homo sapiens, SNB-75, 48 h, read-out: LC50 (the source's name)): 7400 nM
- GI50 (OVCAR-8): 998 nM
- LC50 (OVCAR-8): 7400 nM
- Activity (HCT-15): 3.3%
- GI50 (SN12C): 679 nM
- LC50 (SN12C): 4770 nM
- Activity (MCF7 [7]): -33.81%
- GI50 (NCI-H460): 405 nM
- LC50 (NCI-H460): 3920 nM
- Activity (SK-MEL-2): -61.28%
- GI50 (ACHN): 446 nM
- LC50 (ACHN; Homo sapiens, ACHN, 48 h): 4230 nM
- GI50 (EKVX): 649 nM
- CC50 (EKVX; [9]): 7780 nM
- Activity (MDA-MB-468): -42.33%
- GI50 (HT-29 [8]; Homo sapiens, HT-29, 48 h): 315 nM
- CC50 (HT-29 [8]; [9]): 5520 nM
- GI50 (HL-60(TB); Homo sapiens, HL-60, 48 h): 143 nM
- CC50 (HL-60(TB); [9]): 791 nM
- GI50 (KM12): 275 nM
- CC50 (KM12; [9]): 2960 nM

Reference: ChEMBL document CHEMBL1153245, “A profile of the in vitro anti-tumor activity of imidazolium-based ionic liquids” (2010)
